Experiment [1] has as its target Human CB1 Receptor-1 (hCB1) (Homo sapiens (Human), UniProt P21554). The experiment in a line: hCB1 Gai cyclic AMP (cAMP) TR-FRET assay, antagonism of EC80 CP55940 with forskolin. In kind it is cell-based. The note with it: hCB1 cells, 30 min pre-incubation. Here is the method:
(§1) Example 3. Biochemical Methods Human CB1 Receptor-1 (hCB1) and Human CB1 Receptor-1b (hCBib)
(§2) hCB1/hCB1 b Gai Cyclic AMP (cAMP) Assays: Cells were seeded in a 384-well plate at an appropriate density from frozen cells. The cAMP assays were performed according to the manufacturer's protocol using MULTISCREEN™ TR-FRET cAMP 1.0 No Wash Assay Kit. Cells (hCB1 or hCB1 b) were pre-incubated with customer compounds for 30 minutes at rt followed by addition of EC80 CP55940 concentration and Forskolin. Cells were then incubated for 20 minutes at 37C. The reaction was terminated by sequentially adding sequentially adding MULTISCREEN™ Eu-labeled cAMP and MULTISCREEN™ 650-labeled anti-cAMP antibody in lysis buffer. The plate was then incubated at rt for 30 minutes before reading fluorescent emissions at 620 nm and 665 with excitation at 314 nm on FlexStation III (Molecular Devices). The results are shown in Table 2 (“***” denotes an IC50<100 nM; “**” denotes an IC50 between 100 nM and 500 nM, and “*” denotes an IC50>500 nM).
(TR-FRET usually uses a lanthanide donor and a delayed reading to cut background.)

Experiment [2] concerns the target Human CB1 Receptor-1b (hCB1b) (Homo sapiens (Human), UniProt P21554). As to the kind of experiment: hCB1b Gai cyclic AMP (cAMP) TR-FRET assay, antagonism of EC80 CP55940 with forskolin. In kind it is cell-based. The note with it: hCB1b cells, 30 min pre-incubation, read-out: CB1b IC50. Here is the method: as §1, §2

Usually IC50 stands for the point on the concentration scale where inhibition reaches its midpoint.

Chain of Human CB1 Receptor-1 (hCB1) (P21554 whole entry): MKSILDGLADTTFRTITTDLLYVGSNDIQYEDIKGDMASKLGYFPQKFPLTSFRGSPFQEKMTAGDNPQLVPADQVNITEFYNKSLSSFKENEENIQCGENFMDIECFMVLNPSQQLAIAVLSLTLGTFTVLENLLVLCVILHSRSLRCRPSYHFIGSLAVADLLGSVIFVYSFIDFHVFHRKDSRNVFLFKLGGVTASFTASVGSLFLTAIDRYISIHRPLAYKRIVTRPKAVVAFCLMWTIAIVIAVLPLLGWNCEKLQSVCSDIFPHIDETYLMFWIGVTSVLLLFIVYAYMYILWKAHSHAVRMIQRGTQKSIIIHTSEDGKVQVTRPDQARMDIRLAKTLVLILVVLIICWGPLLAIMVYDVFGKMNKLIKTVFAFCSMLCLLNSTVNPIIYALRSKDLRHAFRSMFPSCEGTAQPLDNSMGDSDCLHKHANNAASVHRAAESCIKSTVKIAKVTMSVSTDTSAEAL
Chain of Human CB1 Receptor-1b (hCB1b) (P21554 other isoform, or with tags, fused parts or gaps): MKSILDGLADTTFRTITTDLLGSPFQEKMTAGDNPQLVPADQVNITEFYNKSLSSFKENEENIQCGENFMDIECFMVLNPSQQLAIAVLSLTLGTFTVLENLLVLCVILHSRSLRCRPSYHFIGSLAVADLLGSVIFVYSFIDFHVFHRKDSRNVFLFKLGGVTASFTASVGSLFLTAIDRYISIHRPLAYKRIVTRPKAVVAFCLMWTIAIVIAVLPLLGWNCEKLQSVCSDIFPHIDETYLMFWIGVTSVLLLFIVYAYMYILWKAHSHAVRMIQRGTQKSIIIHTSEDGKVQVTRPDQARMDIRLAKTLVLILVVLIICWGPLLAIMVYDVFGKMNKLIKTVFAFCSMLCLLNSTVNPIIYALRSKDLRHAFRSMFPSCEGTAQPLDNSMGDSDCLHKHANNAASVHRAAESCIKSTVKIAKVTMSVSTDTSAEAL

Take `C[C@H](CN/C(=N\S(=O)(=O)c1ccc(C(F)(F)F)cc1)N1C[C@H](c2ccccc2)C(c2ccc(F)cc2)=N1)S(N)(=O)=O` (single isomer, unassigned) [Compound 47]: the IC50 in experiment [1] and in experiment [2] was less than 100 nM in each case.
For the compound `C[C@@H](CN/C(=N\S(=O)(=O)c1ccc(C(F)(F)F)cc1)N1C[C@H](c2ccccc2)C(c2ccc(F)cc2)=N1)S(N)(=O)=O` (single isomer, unassigned) [Compound 48], the 50% inhibitory concentration (IC50) in experiment [1] and in experiment [2] was less than 100 nM each time.
For the compound `C[C@@H](CS(N)(=O)=O)NC(=NS(=O)(=O)c1ccc(Cl)cc1)N1C[C@H](c2ccccc2)C(c2ccc(F)cc2)=N1` (single isomer, unassigned) [Compound 61], the IC50 in experiment [1] and in experiment [2] was 100 to 500 nM throughout.
`NS(=O)(=O)[C@H]1C[C@H](N/C(=N/S(=O)(=O)c2ccc(Cl)cc2)N2C[C@H](c3ccccc3)C(c3ccc(Cl)cc3)=N2)C1` (single isomer, unassigned) [Compound 115]: the IC50 in experiment [1] and in experiment [2] was less than 100 nM each time.
As for `NS(=O)(=O)[C@H]1C[C@@H](N/C(=N/S(=O)(=O)c2ccc(Cl)cc2)N2C[C@H](c3ccccc3)C(c3ccc(Cl)cc3)=N2)C1` (single isomer, unassigned) [Compound 116], the IC50 in experiment [1] and in experiment [2] was 100 to 500 nM throughout.
In the case of `NS(=O)(=O)[C@H]1CC[C@@H](N/C(=N/S(=O)(=O)c2ccc(Cl)cc2)N2C[C@H](c3ccccc3)C(c3ccc(Cl)cc3)=N2)CC1` (single isomer, unassigned) [Compound 119], the IC50 in experiment [1] and in experiment [2] was greater than 500 nM throughout.
Consider `NS(=O)(=O)[C@H]1CC[C@H](N/C(=N/S(=O)(=O)c2ccc(Cl)cc2)N2C[C@@H](c3ccccc3)C(c3ccc(Cl)cc3)=N2)CC1` (single isomer, unassigned) [Compound 122], for which the IC50 in experiment [1] and in experiment [2] was 100 to 500 nM in each case.
Take `NS(=O)(=O)[C@H]1CC[C@@H](N/C(=N/S(=O)(=O)c2ccc(Cl)cc2)N2C[C@H](c3ccccc3)C(c3ccc(F)cc3)=N2)CC1` (single isomer, unassigned) [Compound 123]: the IC50 in experiment [1] and in experiment [2] was greater than 500 nM throughout.
In the case of `NS(=O)(=O)[C@H]1CC[C@H](N/C(=N/S(=O)(=O)c2ccc(Cl)cc2)N2C[C@H](c3ccccc3)C(c3ccc(F)cc3)=N2)CC1` (single isomer, unassigned) [Compound 125], the IC50 in experiment [1] and in experiment [2] was 100 to 500 nM in each case.
Take `NS(=O)(=O)[C@H]1C[C@H](N/C(=N/S(=O)(=O)c2ccc(Cl)cc2)N2C[C@H](c3ccccc3)C(c3ccc(F)cc3)=N2)C1` (single isomer, unassigned) [Compound 127]: the 50% inhibitory concentration (IC50) in experiment [1] and in experiment [2] was 100 to 500 nM throughout.
Consider `NS(=O)(=O)[C@H]1C[C@@H](N/C(=N/S(=O)(=O)c2ccc(Cl)cc2)N2C[C@H](c3ccccc3)C(c3ccc(F)cc3)=N2)C1` (single isomer, unassigned) [Compound 129], for which the concentration for half-maximal inhibition (IC50) in experiment [1] and in experiment [2] was greater than 500 nM throughout.
On to `NS(=O)(=O)[C@H]1CCN(/C(=N/S(=O)(=O)c2ccc(Cl)cc2)N2C[C@H](c3ccccc3)C(c3ccc(Cl)cc3)=N2)C1` (single isomer, unassigned) [Compound 135], for which the IC50 in experiment [1] and in experiment [2] was greater than 500 nM throughout.
`NS(=O)(=O)[C@@H]1CCN(/C(=N/S(=O)(=O)c2ccc(Cl)cc2)N2C[C@H](c3ccccc3)C(c3ccc(Cl)cc3)=N2)C1` (single isomer, unassigned) [Compound 136]: the IC50 in experiment [1] and in experiment [2] was greater than 500 nM each time.
Take `NS(=O)(=O)[C@H]1CC[C@H](N/C(=N/S(=O)(=O)c2ccc(Cl)cc2)N2C[C@H](c3ccccc3)C(c3ccc(Cl)cc3)=N2)C1` (single isomer, unassigned) [Compound 139]: the half-inhibitory concentration (IC50) in experiment [1] and in experiment [2] was 100 to 500 nM in each case.
Regarding `NS(=O)(=O)[C@@H]1CC[C@@H](N/C(=N/S(=O)(=O)c2ccc(Cl)cc2)N2C[C@H](c3ccccc3)C(c3ccc(Cl)cc3)=N2)C1` (single isomer, unassigned) [Compound 141], the 50% inhibitory concentration (IC50) in experiment [1] and in experiment [2] was 100 to 500 nM each time.
With `NS(=O)(=O)[C@H]1CC[C@@H](N/C(=N/S(=O)(=O)c2ccc(Cl)cc2)N2C[C@H](c3ccccc3)C(c3ccc(Cl)cc3)=N2)C1` (single isomer, unassigned) [Compound 145], the half-maximal inhibitory concentration (IC50) in experiment [1] and in experiment [2] was 100 to 500 nM in each case.
Turning to `NS(=O)(=O)O[C@H]1C[C@@H](N/C(=N\S(=O)(=O)c2ccc(Cl)cc2)N2C[C@@H](c3ccccc3)C(c3ccc(Cl)cc3)=N2)C1` (single isomer, unassigned) [Compound 226], the results for the IC50 in experiment [1] and in experiment [2] were greater than 500 nM and less than 100 nM, respectively.
On the same counts, the results for `NS(=O)(=O)N[C@H]1C[C@H](N/C(=N\S(=O)(=O)c2ccc(Cl)cc2)N2C[C@H](c3ccccc3)C(c3ccc(Cl)cc3)=N2)C1` (single isomer, unassigned) [Compound 241] are 100 to 500 nM and less than 100 nM.
Take `NS(=O)(=O)N[C@H]1C[C@@H](N/C(=N\S(=O)(=O)c2ccc(C(F)(F)F)cc2)N2C[C@H](c3ccccc3)C(c3ccc(Cl)cc3)=N2)C1` (single isomer, unassigned) [Compound 245]: the figures for the IC50 in experiment [1] and in experiment [2] were 100 to 500 nM and less than 100 nM, respectively.
In the same order, the values of `C[C@@H](CS(N)(=O)=O)N/C(=N\S(=O)(=O)c1ccc(Cl)cc1)N1CC(c2ccccc2)C(c2ccc(Cl)cc2)=N1` (stereo in doubt) [Compound 1, (R,E)-3-(4-chlorophenyl)-N′-((4-chlorophenyl)sulfonyl)-4-phenyl-N-((S)-1-sulfamoylpropan-2-yl)-4,5-dihydro-1H-pyrazole-1-carboximidamide] are less than 100 nM and less than 100 nM.
In the same order, the values of `C[C@H](CS(N)(=O)=O)N/C(=N\S(=O)(=O)c1ccc(Cl)cc1)N1CC(c2ccccc2)C(c2ccc(Cl)cc2)=N1` (stereo in doubt) [Compound 3, (R,E)-3-(4-chlorophenyl)-N′-((4-chlorophenyl)sulfonyl)-4-phenyl-N-((R)-1-sulfamoylpropan-2-yl)-4,5-dihydro-1H-pyrazole-1-carboximidamide] are greater than 500 nM and 100 to 500 nM.
In the same order, the values of `C[C@H](CN/C(=N\S(=O)(=O)c1ccc(Cl)cc1)N1C[C@H](c2ccccc2)C(c2ccc(Cl)cc2)=N1)S(N)(=O)=O` [Compound 5, (S,E)-3-(4-chlorophenyl)-N′-((4-chlorophenyl)sulfonyl)-4-phenyl-N-((R)-2-sulfamoylpropyl)-4,5-dihydro-1H-pyrazole-1-carboximidamide] are less than 100 nM and 100 to 500 nM.
Regarding `C[C@@H](CN/C(=N\S(=O)(=O)c1ccc(Cl)cc1)N1C[C@H](c2ccccc2)C(c2ccc(Cl)cc2)=N1)S(N)(=O)=O` [Compound 6, (S,E)-3-(4-chlorophenyl)-N′-((4-chlorophenyl)sulfonyl)-4-phenyl-N-((S)-2-sulfamoylpropyl)-4,5-dihydro-1H-pyrazole-1-carboximidamide], the results for the IC50 in experiment [1] and in experiment [2] were 100 to 500 nM and less than 100 nM, respectively.
Take `NS(=O)(=O)CCN/C(=N\S(=O)(=O)c1ccc(F)cc1)N1C[C@H](c2ccccc2)C(c2ccc(Cl)cc2)=N1` [Compound 11, (S,E)-3-(4-chlorophenyl)-N′-((4-fluorophenyl)sulfonyl)-4-phenyl-N-(2-sulfamoylethyl)-4,5-dihydro-1H-pyrazole-1-carboximidamide]: the concentration for half-maximal inhibition (IC50) in experiment [1] and in experiment [2] was less than 100 nM throughout.
For the compound `C[C@@H](CN/C(=N\S(=O)(=O)c1ccc(F)cc1)N1C[C@H](c2ccccc2)C(c2ccc(Cl)cc2)=N1)S(N)(=O)=O` [Compound 13, (S,E)-3-(4-chlorophenyl)-N′-((4-fluorophenyl)sulfonyl)-4-phenyl-N-((S)-2-sulfamoylpropyl)-4,5-dihydro-1H-pyrazole-1-carboximidamide], the IC50 in experiment [1] and in experiment [2] was less than 100 nM each time.
Turning to `C[C@H](CN/C(=N\S(=O)(=O)c1ccc(F)cc1)N1C[C@H](c2ccccc2)C(c2ccc(Cl)cc2)=N1)S(N)(=O)=O` [Compound 14, (S,E)-3-(4-chlorophenyl)-N′-((4-fluorophenyl)sulfonyl)-4-phenyl-N-((R)-2-sulfamoylpropyl)-4,5-dihydro-1H-pyrazole-1-carboximidamide], the IC50 in experiment [1] and in experiment [2] was less than 100 nM in each case.
In turn, `C#Cc1ccccc1S(=O)(=O)N=C(NCCS(N)(=O)=O)N1C[C@H](c2ccccc2)C(c2ccc(Cl)cc2)=N1` [Compound 33, (S)-3-(4-chlorophenyl)-N′-((2-ethynylphenyl)sulfonyl)-4-phenyl-N-(2-sulfamoylethyl)-4,5-dihydro-1H-pyrazole-1-carboximidamide] yielded an IC50 in experiment [1] of 100 to 500 nM.
On the same count and under the same terms, the same measure for `NS(=O)(=O)O[C@H]1C[C@@H](N/C(=N\S(=O)(=O)c2ccc(C(F)(F)F)cc2)N2C[C@H](c3ccccc3)C(c3ccc(Cl)cc3)=N2)C1` [Compound 227, (1R,3s)-3-((S,E)-3-(4-chlorophenyl)-4-phenyl-N′-((4-(trifluoromethyl)phenyl)sulfonyl)-4,5-dihydro-1H-pyrazole-1-carboximidamido)cyclobutyl sulfamate]: 100 to 500 nM.
